Among the test systems are BT-549 breast; DMS 114 small cell lung; HOP-18 NSCLC; LXFL 529 NSCLC; M19-MEL melanoma; SNB-78 CNS; XF 498 CNS; DMS 273 small cell lung; RXF-631 renal.
Experiment in all cases: growth of human tumour cells (NCI), 48 h

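Tested at 5 concentrations; 48 h exposure; 96-well plates; endpoints linearly interpolated, else capped at highest concentration. TGI: concentration producing complete growth inhibition.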 Bounds are passed on as bounds.

Turning to `CC[C@]1(Cc2ccc(OC)c(OC)c2)C2CC(C(=O)OC)ON2O[C@H](OCc2ccccc2)[C@@H]1OC(C)=O` (stereo partly drawn), in the test on BT-549 breast, the TGI is > 100 µM.
For the compound `COC(=O)/C(=N\NC(N)=O)C(C#N)c1ccccc1` (stereo not drawn), the TGI in the test with DMS 114 small cell lung, in the test on HOP-18 NSCLC, with LXFL 529 NSCLC, in the test on M19-MEL melanoma, in the test with SNB-78 CNS and in the test with XF 498 CNS was > 100 µM throughout.
With `CC1=C[C@H]([C@H]2C=C(C)C(C(N)=O)=CN2Cc2c(Cl)cccc2Cl)N(Cc2c(Cl)cccc2Cl)C=C1C(N)=O`, the TGI in the test with BT-549 breast is > 75 µM.
As to `CC(C)=NOC(=O)OC[C@H]1O[C@@H](n2cnc3c(N)ncnc32)C(O)C1O` (stereo partly drawn), in the test with BT-549 breast, the TGI is > 100 µM.
For `COc1ccc2nc3cc([N+](=O)[O-])ccc3c(Nc3ccc(S(=O)(=O)Nc4ncccn4)cc3)c2c1`, in the test with BT-549 breast, the TGI is > 100 µM.
On the same count and under the same terms, the value for `Cc1c(C(=O)Nc2ccccc2)nnn1-c1ccnc2cc(C(F)(F)F)ccc12` was > 100 µM.
As to `O=C(c1ccccc1)N(CCCCNC(=O)C(F)(F)F)CCCNC(=O)C(F)(F)F`, the TGI in the test with BT-549 breast was > 100 µM.
Regarding `CCCCc1nc(C)oc1C(C)C`, the TGI in the test with BT-549 breast was > 100 µM.
On to `O=C1c2cn[nH]c2N=C(Nc2ccccc2)C1N=Cc1ccc([N+](=O)[O-])cc1` (stereo not drawn), for which the TGI with BT-549 breast is > 10 µM.
In the case of `CN(/N=C/c1ccc(Cl)c(Cl)c1)C1=NCCCCN1`, the TGI with BT-549 breast was > 100 µM.
With `Cc1cccc(N=Cc2ccc(N(CCC#N)S(=O)(=O)c3ccccc3)cc2C)c1`, the TGI in the test on DMS 114 small cell lung, with DMS 273 small cell lung, in the test on LXFL 529 NSCLC, in the test with M19-MEL melanoma, in the test with RXF-631 renal and in the test on XF 498 CNS was > 100 µM throughout.
Take `COc1ccc(NC(=O)C(C#N)=C(SC)SC)cc1`: the TGI in the test with BT-549 breast is > 100 µM.
As for `O=C1CCCCCCCCCCC1CN1CCOCC1` (stereo not drawn), the TGI in the test with BT-549 breast was > 100 µM.
As for `CCOC(=O)C(NC(=O)c1ccccc1)(c1ccc(S(=O)(=O)Nc2onc(C)c2C)cc1)C(F)(F)F` (stereo not drawn), in the test with BT-549 breast, the TGI is > 100 µM.
The same measure, in the same setting: to `C=CCc1cccc2cc(C(=O)Nc3ccc(C)cc3)c(=N)oc12` belongs > 100 µM.
As to `Cc1nc(-n2nc(-c3ccccc3)cc2-c2ccccc2)sc1C(=O)/C=C/c1ccc([N+](=O)[O-])cc1`, the TGI was 39.5 µM in the test on BT-549 breast; > 100 µM in the test with DMS 273 small cell lung; > 100 µM in the test with HOP-18 NSCLC; 98.9 µM in the test with M19-MEL melanoma; > 100 µM with RXF-631 renal; > 100 µM in the test on SNB-78 CNS.
With `Nc1ccn(CCOC(c2ccccc2)P(=O)(O)O)c(=O)n1` (stereo not drawn), the TGI in the test with DMS 114 small cell lung, with DMS 273 small cell lung, in the test with LXFL 529 NSCLC, with M19-MEL melanoma, with SNB-78 CNS and in the test on XF 498 CNS was > 100 µM throughout.
With `CCOC(=O)[C@@]1(C(C)=O)CC(C)=C(C)C[S@]1=O`, the TGI in the test with BT-549 breast was > 100 µM.
Take `Nc1ncnc2c1ncn2[C@@H]1O[C@H](COP(=O)(O)OP(=O)(O)OC[C@H]2O[C@@H](OCCCO)[C@H](O)[C@@H]2O)[C@@H](O)[C@H]1O`: the TGI in the test with BT-549 breast was > 100 µM.
As for `C1=CCC[C@@H]2CN3CCCC/C=C\CCCC[C@H]4C[C@H](CN(CCCCCCCC1)C4)[C@H]2CC3`, in the test on BT-549 breast, the TGI was 29.8 µM.
As for `CO/N=C(/C(=O)Nc1c[n+](CC(=O)[O-])cs1)c1csc(N)n1`, the TGI with DMS 273 small cell lung, in the test with HOP-18 NSCLC, in the test on LXFL 529 NSCLC, in the test with SNB-78 CNS and with XF 498 CNS was > 100 µM throughout.
In the test with BT-549 breast, `O=C1NC(=NCc2ccc(F)cc2)N/C1=C\c1ccccc1Cl` showed a TGI of 56.8 µM.
The same measure, in the same setting: to `Cc1cc(C#N)c(Nc2ccc(F)cc2[N+](=O)[O-])s1` belongs > 100 µM.
In the case of `CN1N=C2c3ccccc3OC(c3ccccc3)[C@H]2C1c1ccccc1` (stereo partly drawn), the TGI with DMS 114 small cell lung, with DMS 273 small cell lung, in the test with HOP-18 NSCLC, with LXFL 529 NSCLC, in the test on M19-MEL melanoma and in the test on SNB-78 CNS was > 100 µM throughout. The TGI in the test on XF 498 CNS is > 100 µM.
On to `CCCCCCCC(=O)OCC1OC(n2cc(F)c(=O)[nH]c2=O)C(N)C(O)C1O` (stereo not drawn), for which the TGI in the test on DMS 114 small cell lung, in the test with DMS 273 small cell lung, with HOP-18 NSCLC, with LXFL 529 NSCLC, with M19-MEL melanoma and in the test with SNB-78 CNS was > 100 µM in each case.
On to `CCc1ccc(Cc2ccc(CC)c(NC(=O)C(=O)C3NC(=S)NC3=O)c2CC)c(CC)c1NC(=O)C(=O)C1NC(=S)NC1=O` (stereo not drawn), for which the TGI in the test with DMS 273 small cell lung, in the test with LXFL 529 NSCLC, with M19-MEL melanoma, in the test with RXF-631 renal and in the test with SNB-78 CNS was > 100 µM each time.
In the case of `CNS(=O)(=O)NNS(=O)(=O)c1ccc(F)cc1`, the TGI in the test with DMS 114 small cell lung, in the test with DMS 273 small cell lung, in the test with LXFL 529 NSCLC, with M19-MEL melanoma, with RXF-631 renal and in the test on XF 498 CNS was > 100 µM each time.
Turning to `COc1cccc(C=O)c1[O-].COc1cccc(C=O)c1[O-].[Zn+2]`, the TGI in the test on DMS 114 small cell lung is > 100 µM; in the test on DMS 273 small cell lung, > 100 µM; with HOP-18 NSCLC, > 100 µM; in the test with LXFL 529 NSCLC, > 100 µM; in the test on M19-MEL melanoma it was 98.6 µM; in the test on SNB-78 CNS, > 100 µM.
Regarding `CCCCCCCC(=O)OC[C@H](C[As](=O)(O)O)OC(=O)CCCCCCC`, the TGI in the test on DMS 114 small cell lung worked out at 19.5 µM; with DMS 273 small cell lung it was 24 µM; with HOP-18 NSCLC it was 49.2 µM; in the test on LXFL 529 NSCLC, 21.7 µM; with M19-MEL melanoma, 27.2 µM; in the test on SNB-78 CNS, 44.3 µM.

Values taken from PubChem BioAssay (NCI).
